# Data published in PubChem BioAssay (NCI).
# “And” between values parts separate entries of the source, which are not always exact repeats. Identical values can stand only once.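 Protocol summary: plate cells (96-well), add compound at 5 concentrations, incubate 48 h, interpolate endpoints linearly. GI50 is the concentration that inhibits growth by half. At the TGI there is no net growth.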
# Experiments:
# Test in all cases: NCI anticancer screen, dose series, 48 h
# CAKI-1 renal = system: CAKI-1 renal
# HS 578T breast = system: HS 578T breast
# MALME-3M melanoma = system: MALME-3M melanoma
# NCI-H23 lung = system: NCI-H23 lung
# NCI-H460 lung = system: NCI-H460 lung
# SK-MEL-28 melanoma = system: SK-MEL-28 melanoma
# SK-MEL-5 melanoma = system: SK-MEL-5 melanoma
# SNB-75 CNS = system: SNB-75 CNS
# SR leukemia = system: SR leukemia
# T-47D breast = system: T-47D breast
SMILES,TGI (CAKI-1 renal),TGI (HS 578T breast),TGI (MALME-3M melanoma),TGI (NCI-H23 lung),TGI (NCI-H460 lung),TGI (SK-MEL-28 melanoma),TGI (SK-MEL-5 melanoma),TGI (SNB-75 CNS),TGI (SR leukemia),TGI (T-47D breast),GI50 (CAKI-1 renal),GI50 (HS 578T breast),GI50 (MALME-3M melanoma),GI50 (NCI-H23 lung),GI50 (NCI-H460 lung),GI50 (SK-MEL-28 melanoma),GI50 (SK-MEL-5 melanoma),GI50 (SNB-75 CNS),GI50 (SR leukemia),GI50 (T-47D breast)
COc1cc2nncc(SCc3ccc(Cl)c(Cl)c3)c2cc1OC,> 100 µM,> 100 µM,> 100 µM,> 100 µM,> 100 µM,> 100 µM,> 100 µM,73 µM,> 100 µM,> 100 µM,–,–,–,–,–,–,–,–,–,–
NCCSC(C[N+](=O)[O-])c1ccccc1Cl (stereo not drawn),24.3 µM,7.63 µM,36.7 µM,12 µM,32 µM,4.6 µM,10.1 µM,16.9 µM,> 100 µM,9.09 µM,9.88 µM,2.46 µM,16.3 µM,3.37 µM,11.8 µM,2.08 µM,3.03 µM,4.22 µM,3.05 µM,2.23 µM
COc1cc(-c2oc3c(OC)c(O)cc(O)c3c(=O)c2OC)ccc1O,51.5 µM,6.83 µM,97.5 µM,> 100 µM,> 93.5 µM,> 100 µM,20.4 µM,27.1 µM,> 26.7 µM,18.2 µM,–,–,–,–,–,–,–,–,–,–
COc1cc2c3cc1Oc1c(OC)c(OC)cc4c1C(Cc1ccc(cc1)Oc1cc(ccc1O)CC3N(C)CC2)N(C)CC4 (stereo not drawn),42.9 µM and 31.4 µM,31.4 µM,27 µM and 26 µM,48.1 µM and 26.3 µM,32.6 µM and 17.3 µM,25.9 µM and 26 µM,18.7 µM and 3.72 µM,25.3 µM and 23.8 µM,8.98 µM and 7.5 µM,26.8 µM,–,–,–,–,14.5 µM and 4.72 µM,12.9 µM and 5.81 µM,6.2 µM and 1.81 µM,–,–,–
CN(C)C(=S)SCC(N)=O,> 100 µM,> 100 µM,> 100 µM,> 100 µM,> 100 µM,> 100 µM,> 100 µM,> 100 µM,> 100 µM,> 100 µM,–,–,–,–,–,–,–,–,–,–
CC1=NN(C(=O)c2nn(-c3ccc(Cl)cc3)cc2O)C(=O)C1,26.4 µM,> 100 µM,99.5 µM,> 100 µM,> 52.7 µM,> 100 µM,> 36.9 µM,> 100 µM,7.97 µM,> 100 µM,1.89 µM,0.34 µM,9.29 µM,3.03 µM,0.41 µM,9.13 µM,3.45 µM,0.532 µM,0.419 µM,2.87 µM
CCCCN(CCCC)CCC(O)c1cc2ccc(C(F)(F)F)cc2c2cc(C(F)(F)F)ccc12 (stereo not drawn),9.01 µM,4.62 µM,5.51 µM,6.81 µM,4.09 µM,4.23 µM,3.15 µM,15 µM,6.41 µM,12.9 µM,2.61 µM,1.55 µM,2.34 µM,2.08 µM,1.84 µM,2.21 µM,1.76 µM,3.46 µM,1.61 µM,3.09 µM
COc1ccc2c(c1)C=C1CSCC3=Cc4cc(OC)ccc4OC13O2,> 100 µM,> 100 µM,> 100 µM,> 100 µM,> 100 µM,> 100 µM,> 100 µM,0.598 µM,> 100 µM,> 100 µM,0.41 µM,0.313 µM,0.473 µM,1.01 µM,0.387 µM,> 28.2 µM,0.41 µM,0.183 µM,0.164 µM,0.418 µM
CCc1c2c(nc3ccc(OCc4ccc(B5OC(C)(C)C(C)(C)O5)cc4)cc13)-c1cc3c(c(=O)n1C2)COC(=O)[C@]3(O)CC,1.22 µM,> 100 µM,3.07 µM,0.219 µM,1.24 µM,> 100 µM,0.338 µM,0.296 µM,> 100 µM,> 100 µM,0.0162 µM,1.11 µM,0.134 µM,0.0248 µM,0.0125 µM,0.604 µM,0.0372 µM,0.0183 µM,< 0.01 µM,< 0.01 µM
Oc1ccc(O)c2c1C1(Cl)C(Cl)=C(Cl)C2(Cl)C1(Cl)Cl,8.31 µM,8.09 µM,9.95 µM,22.1 µM,8.94 µM,81 µM,17 µM,6.84 µM,24.7 µM,24.3 µM,2.44 µM,2.07 µM,2.31 µM,5.17 µM,2.86 µM,10.9 µM,5.09 µM,1.52 µM,2.65 µM,5.19 µM
CN(C)CC1=Nc2cccc3cccc(c23)N1,38.6 µM,> 100 µM,36.5 µM,49.9 µM,> 100 µM,49.1 µM,28.7 µM,30.4 µM,84.3 µM,24.6 µM,–,–,–,–,–,–,–,–,–,–
CCC(=O)c1c(C(F)(F)F)n([O-])c2ccccc2[n+]1=O,6.03 µM,30.5 µM,6.16 µM,4.37 µM,2.6 µM,44.6 µM,2.64 µM,24.8 µM,10.3 µM,31.1 µM,1.54 µM,3.17 µM,1.69 µM,1.1 µM,0.695 µM,8.84 µM,0.961 µM,3.79 µM,0.193 µM,2.27 µM
c1ccc(/C(=N\Nc2ccc3ccccc3n2)c2ccccn2)cc1,3.95 µM,41.6 µM,5.76 µM,22.8 µM,11.3 µM,39 µM,2.92 µM,> 85.2 µM,1.14 µM,26 µM,0.0927 µM,4.42 µM,0.546 µM,0.983 µM,0.414 µM,2.66 µM,0.487 µM,2.56 µM,0.246 µM,0.315 µM
C=C1C(=O)O[C@H]2[C@H]1CC/C(CNC(=O)/C=C/c1ccc(Cl)cc1Cl)=C\CC[C@@]1(C)O[C@@H]21,2.16 µM,8.23 µM,2.7 µM,3.2 µM,3.52 µM,2.93 µM,3.02 µM,10.3 µM,1.89 µM,3.45 µM,0.759 µM,2.09 µM,1.29 µM,1.4 µM,1.76 µM,1.32 µM,1.63 µM,1.74 µM,0.232 µM,1.18 µM
CC(C)=CCc1cc(C2COc3cc4c(c(O)c3C2=O)C=CC(C)(C)O4)c(O)cc1O (stereo not drawn),30.9 µM,39.9 µM,28.3 µM,32.6 µM,27.4 µM,50.4 µM,25 µM,36 µM,24.1 µM,27.2 µM,–,–,–,–,–,–,–,–,–,–
